From patent US20130217132A1, “METHODS, COMPOSITIONS AND USE FOR ENHANCING CHEMICAL TOLERANCE BY MICROORGANISMS” (priority 2009, published 2013)

Tested on: BW25113 araC::FRT-kan clone with overexpression of lpcA gene
Assay: Cell growth (OD600) in MOPS minimal media with furfural, araC deletion plus lpcA overexpression
Type: cell-based, E. coli
Details: furfural 1 g/L, araC deletion and lpcA overexpression
Protocol: In other exemplary methods, tolerance and expression of LPS was restored in a microorganism. FIG. 19 represents an example of restoration of tolerance and LPS expression in BW25113 ArecA clone. The indicated cells were grown in MOPS minimal media supplemented with glucose as a carbon source. Furfural was added to the media at the concentration of 1 g/L. Arabinose was added at 10 mM where indicated to gauge effect of AraC binding. The BW25113 araC::FRT-kan clone corresponds to JW0063, a BW25113 araC knockout mutant ordered from the Keio Collection directly. pBTL-1 represented the blank vector, and pLPCA referred to lpcA gene overexpression. Consistent with the Examples above, overexpression of lpcA gene increased cell growth (OD600 of 0.1 vs. 0.05) in the presence of furfural. Addition of Arabinose to the lpcA gene overexpression cells could further enhance the effect (OD600 of 0.3). […] To analyze the LPS level in the cells indicated in FIG. 19, LPS are extracted from the cells grown to exponential phase. Loading of LPS for the protein gel is normalized to the cell number. The gel is stained to visualize LPS protein bands after desired separation is obtained.
BW25113, MG1655, and derivatives were used where indicated. JW0063, an araC mutant of BW25113 was obtained from the Coli Genetic Stock Center (Yale). Overnight bacterial cultures were grown in Luria-Bertani medium with shaking. […]

SMILES: O=Cc1ccco1 [furfural, furan-2-carbaldehyde]
- OD600 (cell growth in the presence of furfural) (absence of Arabinose): 0.5
- OD600 (cell growth in the presence of furfural) (presence of Arabinose): 1.0
